Reference: a melting point compilation (Tetko et al.; mined from patent text by program, amines drawn as free bases though some values may be those of a salt)

| Compound | melting point [°C] |
| --- | --- |
| C/C(=C\c1ccc(C(=O)O)cc1)c1ccc2c(c1)SCCS2 | 236 to 237 |
| Cc1c[nH]c(C)c1C(C)(C)C | 70 to 71 |
| COc1ccc(S(=O)(=O)c2cnoc2C(C)C)cc1 | 62 to 63.5 |
| CCc1ccc2ncc(-c3nnn[nH]3)c(=O)n2c1 | 289 to 290 |
| CS(=O)(=O)c1cnc2c(c1)cc(-c1ncco1)n2Cc1ccc(F)cc1 | 200 to 201 |
| CN(C)CC1=Cc2ccc(C(=O)Nc3ccc(Br)cc3)cc2CC1 | 175 to 179 |
| CCOc1c(C(F)(F)F)ncn(-c2c(Cl)cc(C(F)(F)F)cc2[N+](=O)[O-])c1=O | 97.5 to 100 |
| C=CCOC1=C(O)[C@@H](CC/C=C\CCCCCCCCCCCCCC)OC1=O | 49 to 53 |
| CC1(C)C(C=C(F)C(=O)O)C1C(=O)OCc1ccccc1 (stereo unspecified) | 88 |
| Cc1ccc(S(=O)(=O)N2CC=CC2)cc1 | 123 to 124 |
| CC(C)Oc1ccc2c(c1)Oc1cccc(F)c1S2(=O)=O | 151 to 152 |
| COC(=O)c1ccc(OCC(C)C)c([N+](=O)[O-])c1 | 77 |
| CC(=O)N(C)c1cccc(-c2ccnc3c(Cl)cnn23)c1 | 163 to 165 |
| S=C(NCCCC1(Cl)CC=CS1)Nc1ccccn1 (stereo unspecified) | 116 to 122 |
| O=c1sc(CO)c(C(F)(F)F)n1CC=C(Cl)Cl | 81 |
| O=C(c1ccccc1)N1CCc2cc(Cl)ccc21 | 135 to 136 |
| CC(C)(C)OC(=O)NCCNC(=O)c1csc(Cl)n1 | 127 to 129 |
| O=C(O)c1cccc([N+](=O)[O-])c1Nc1ccc(Br)cc1 | 194 to 196 |
| CCC(=O)Oc1cc([N+](=O)[O-])cc([N+](=O)[O-])c1OC(=O)CC | 72 to 73 |
| N#CC(N)C=Cc1ccccc1 (stereo unspecified) | 79 |
| COc1cc(Nc2nccc(Sc3ccccc3)n2)cc(OC)c1OC | 110 |
| COC(=O)Cc1ccc(OCCCOc2cc3c(cc2O)CCO3)cc1 | 108 to 110 |
| O=C(Nc1cccc(C(F)(F)F)c1)c1cccc2cc(Oc3cc(COCc4ccccc4)ncn3)ccc12 | 123 to 124 |
| CC(=N)Nc1ccc2nc(-c3ccccc3)ncc2c1 | 162 to 164 |
| Nc1nc(Cl)cc(OCC(O)CO)n1 (stereo unspecified) | 175 to 177 |
| O=Cc1cn(Cc2ccc(Cl)cc2)c2ccccc12 | 122 |
| CCS(=O)(=O)Nc1cc(-n2nnn(CCCF)c2=O)c(F)cc1Cl | 84 to 85 |

| Compound | melting point [°C] |
| --- | --- |
| CCOC(=O)CC(=O)c1ccc(CCNC(C)=O)cc1 | 89 to 92 |
| Cn1ncc2cc3ncc(-c4ccc(Cl)s4)nc3cc21 | 225 to 227 |
| CCCC(CCC)CCCC(N)=O | 44 |
| O=[N+]([O-])c1ccc(C2SCCCS2)c(CO)c1 | 130 to 131 |
| c1ccc(-c2ccc(-n3cccc3)cc2)cc1 | 190 to 192 |
| CC1(C(F)(F)F)C=C(C(=O)NCCC#N)c2cc([N+](=O)[O-])ccc2O1 (stereo unspecified) | 191 to 193 |
| O=C(Nc1ccc(O)c(C(=O)O)c1)c1ccc([N+](=O)[O-])cc1 | 270 to 271 |
| O=C(O)CCc1cc2c(c(Br)c1Br)OCC2 | 224 to 226 |
| CCN1c2cscc2CN(C)c2ccccc21 | 135 to 137 |
| OC1CSC(Oc2cccnc2-c2cccnc2)C(O)C1O (stereo unspecified) | 80 |
| Cc1cccc(COCc2cccc(OCc3ccc4ccccc4n3)c2)c1C(=O)O | 39 to 65 |
| N#CCCCCn1cnc(NC(N)=NCC(F)(F)F)n1 | 200 to 201 |
| CN(C(=O)Cl)c1ccccc1C(F)(F)F | 44 to 46 |
| CC(=O)Nc1ccc(C(=O)NCCN2[C@H](C)Cc3ccsc3[C@@H]2C)cc1 (relative stereo) | 161 to 162 |
| CNc1nc(C)c(C(=O)c2ccc(Cl)c([N+](=O)[O-])c2)s1 | 220 to 232 |
| Oc1ccc(-c2cc(S)n3nccc3n2)cc1O | > 280 |
| CC12CCC(C1)C(C)(C)C2(CCO)SN=O (stereo unspecified) | 81 to 85 |
| Nc1nc2ccc(CO)cc2n1Cc1cccc2cccnc12 | 230 |
| Cc1cc(=O)n2nc(C)n(N)c2n1 | 287 to 289 |
| Cc1cc(Br)sc1-c1nc(-c2c(F)cccc2Cl)nn1C | 117 to 118 |
| CC(=O)C1=C(O)C(=C(C)Nc2ccc(NC(N)=O)cc2)C(=O)OC1=O | 250 to 253 |
| O=C(C/C=C/c1ccccc1)Nc1cccc(-n2ccnc2)c1 | 130 to 133 |
| O=C(Nc1nncs1)c1sc(Nc2ccccc2)c2c1CCc1cnoc1-2 | 227 to 229 |
| CN(C)C=C1C(=O)N(c2cccc(C(F)(F)F)c2)c2ccccc21 | 103 to 106 |
| CC(C)(O)C(=O)Nc1ccc2ccccc2c1 | 155 to 157 |
| NC(=O)c1ccccc1C1c2ccc(Cl)cc2Oc2cc(Cl)ccc21 | 218 to 220 |
| COc1ccc(CSc2nnc(-c3ccc4c(c3)CCO4)o2)cc1 | 121 to 124 |

Results, then the compound that gave them:

| melting point [°C] | Compound |
| --- | --- |
| 167 to 168 | CCn1nnc2cc3c(N4CCN(C(=O)Nc5ccc(Oc6ccccc6)cc5)CC4)ncnc3cc21 |
| 245 to 246 | Nc1nc2ccccc2c2c1nc(CCO)n2CCCNC(=O)c1cc2ccccc2cn1 |
| 201 to 205 | COC(=O)CCc1ccc2c(c1)nc(N)c1ncn(CC(C)(C)O)c12 |
| 194 to 195 | Cc1nc2c3c(c(C(=O)N(C)CCO)cc2n1C)CCC1(Cc2ccccc2C1)N3 |
| 238 to 240 | Cc1cc(C)c2cc(N)c(=O)[nH]c2n1 |
| 209 to 211 | O=C(CN1CS(=O)(=O)CC1=O)N1CCN(C(c2ccccc2)c2ccccc2)CC1 |
| 206 to 207 | O=C(O)COc1ccc(C2=CC(=O)CCC2C2CCCC2)c(Cl)c1Cl (stereo unspecified) |
| 82 to 85 | CCN1C(=O)CCCc2cc(Nc3ncc(Cl)c(Nc4ccccc4-n4cccn4)n3)c(OC)cc21 |
| 248 | CC1(C)Oc2ccc(C#N)cc2[C@@H](N2CC(OCc3ccccc3)=CC2=O)[C@@H]1O (relative stereo) |
| 83 to 86 | O[C@@H](COc1cccc(-c2noc3ccsc23)c1)CN1CCN(c2ccccc2Cl)CC1 |
| 160 to 162 | Cc1ccc(C2C=C3C(=CCC4=C3NN(C)CC4)S2=O)cc1 (stereo unspecified) |
| 146 to 147 | CNC(=O)c1cccc(F)c1Nc1nc(Nc2ccc3c(c2)CCCC(=O)N3CCOC)ncc1Cl |
| 105 to 107 | COc1ccc2c(c1)c(CC(=O)N(C(=O)NC1CCCCC1)C1CCCCC1)c(C)n2-c1ncnc2cc(Cl)ccc12 |
| 264 to 266 | Nc1cc(Sc2ccc3c(C(=O)O)cccc3c2)ncn1 |
| 161 | CCOC(=O)C1=C(N)NC(c2ccccc2)=CC1c1cccc(Cl)c1 (stereo unspecified) |
| 194 to 199 | CCCN(CCN1CCN(C(=O)c2ccc3[nH]ccc3c2)CC1)C1CCc2ccc(O)cc2C1 (stereo unspecified) |
| 159 to 161 | CCOC(=O)c1cnc2c(SC(=O)N3CCN(Cc4ccc5c(c4)OCO5)CC3)cccn2c1=O |
| 239 to 240 | CC(C)(C)OC(=O)N1C[C@@H](c2c[nH]c3ccccc23)[C@H](c2cn3c4c(cccc24)CCC3)C1 |
| 163 to 164 | CCC(=O)NC/C=C1\CCc2ncc3c(c21)CCO3 |
| 148 to 149 | COC(=O)C1C=CCN2C(=O)C(CCO)(Cc3ccccc3)C(=O)N12 (stereo unspecified) |
| > 230 | Cc1ccccc1C(=O)Nn1c(=O)c(=O)[nH]c2ccc3ccc([N+](=O)[O-])cc3c21 |
| 227 to 229 | CN1CCN(c2nc3sc4c(NCCc5ccccn5)ncnc4c3c3c2COC(C)(C)C3)CC1 |
| 278 to 281 | CCn1c(=O)c2[nH]c(/C=C/c3ccc(OC)c(OC)c3Cl)nc2n(CC)c1=O |
| 84 | Cc1cc(F)ccc1-c1ccc(S(=O)(=O)N2c3ccccc3CC2C(=O)NCCOc2ccc(C(=O)OC(C)(C)C)cc2)cc1 (stereo unspecified) |

| melting point [°C] | Compound |
| --- | --- |
| 128 | COC(=O)C(C)c1ccc(N2Cc3ccccc3C2=O)cc1 (stereo unspecified) |
| 158 to 160 | CCCc1nc2c(N)nc3c(c2n1CCCCC(=O)N1CCOCC1)CCCC3 |
| 153 to 155 | CCc1cc(C(=O)c2ccccc2Cl)c(-n2c(C)nnc2CNC(=O)Cc2ccccc2)s1 |
| 100 to 102 | CN1C(=O)N2CCSC2(c2ccccc2)C1=O (stereo unspecified) |
| 190 to 192 | CNC(=O)CC1CN=C(c2cc3cc(Oc4ccc(S(C)(=O)=O)cn4)cc(OC(C)C)c3[nH]2)S1 (stereo unspecified) |
| 181 to 183 | O=c1c(Cl)c(C(F)(F)F)nc(Nc2cc(C(F)(F)F)ccc2C(F)(F)F)n1C1CCCCC1 |
| 211 to 212 | COc1ccc(-c2nc(C(=O)OC(C)(C)C)c(-c3ccncc3)[nH]2)cc1 |
| 205 | COc1c(N2CCC(N)C(C)(C)C2)c(F)c(N)c2c(=O)c(C(=O)O)cn(C3CC3)c12 (stereo unspecified) |
| 150 to 151 | CC(=O)N1CCN(Cc2cc(C)c(O)c(C)c2)CC1 |
| 119 to 120 | Cc1c(C2=CCC(Cc3ccccc3)(N(C)C)CC2)[nH]c2ccc(C(F)(F)F)cc12 (stereo unspecified) |
| 240 to 242 | COc1ccc(N2CCOCC2)c2sc(NC(=O)N(C)C3CCOCC3)nc12 |
| 304 to 306 | COc1cc(C2=Nc3ccc(N4CCCC4)cc3C(=O)C2)ccc1OCc1ccccc1 |
| 156 to 157 | CCCCOc1c(CN2C(=O)c3ccccc3C2=O)n(CC2CC2)c(=O)c2ccc(Br)cc12 |
| 234 to 235 | Cc1cccc2cc3c(=O)n([C@@H](C)c4ccccc4)cc(C(=O)O)c3nc12 |
| 204 to 206 | COc1ccc(S(=O)(=O)Nc2cccc(C)c2NC(=O)c2ccc(F)cc2)cc1 |
| 92 | Cc1ccc(C(=O)c2ccc3[nH]cc(C4CCN(C)CC4)c3c2)cc1 |
| 142 to 143 | Cc1oc(-c2ccccc2)nc1CCOc1ccc(Cn2cc(CCC(=O)O)c(-c3ccccc3)n2)cc1 |
| 238 to 240 | CS(=O)(=O)Nc1cc2occ(-n3cccc3)c(=O)c2cc1Oc1ccccc1 |
| 128 to 129 | CCN1CC2CCCC2C1CNC(=O)c1cc(Cl)c(N)cc1OC (stereo unspecified) |
| 115 to 118 | COC(=O)c1cc(Oc2ccc([N+](=O)[O-])cc2)ccc1OC |
| 190 to 192 | O=C(NCc1ccccc1N1CCOCC1)c1ccn2nc(-c3ccccc3)cc2n1 |
| 288 to 289 | CC(=O)Nc1nc2c(Oc3cc(-c4ccc(C(F)(F)F)cc4NC(=O)CC4CCCCC4)ncn3)cccc2s1 |
| 100 | CCOC(=O)NC1CCN(Cc2ccccc2)CC1 |
